Values of other authors in patent publication EP1336411A1, “Compositions and methods for improving enzyme replacement therapy of lysosomal storage diseases” (Academisch Medisch Centrum bij de Universiteit van Amsterdam, priority 2002, dated 2003).

Biological target: alpha-Galactosidase A (Homo sapiens, UniProt P06280)
Conditions: read-out: apparent Km; artificial substrate 4-methylumbelliferyl-alpha-D-galactopyranoside; pH 4.6 (maximal activity)

alpha-Galactosidase A, sequence (P06280 32-429): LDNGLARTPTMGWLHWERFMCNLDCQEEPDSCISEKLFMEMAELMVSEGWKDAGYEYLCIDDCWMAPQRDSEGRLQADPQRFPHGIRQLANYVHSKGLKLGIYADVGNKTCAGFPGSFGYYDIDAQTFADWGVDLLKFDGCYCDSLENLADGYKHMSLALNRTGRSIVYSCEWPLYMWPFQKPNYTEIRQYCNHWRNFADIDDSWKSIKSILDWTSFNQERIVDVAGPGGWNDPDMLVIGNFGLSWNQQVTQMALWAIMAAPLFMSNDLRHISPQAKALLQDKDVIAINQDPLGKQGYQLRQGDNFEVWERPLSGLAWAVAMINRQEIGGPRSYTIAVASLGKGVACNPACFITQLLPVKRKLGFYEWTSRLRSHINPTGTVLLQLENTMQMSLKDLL

- Km: 2000 µM
Compound: Cc1cc(=O)oc2cc(O[C@H]3O[C@H](CO)[C@H](O)[C@H](O)[C@H]3O)ccc12 [4-methylumbelliferyl-alpha-D-galactopyranoside]
